Results reported in US20110263647A1 (AMGEN INC., priority 2009, published 2011).
Where a name gives a salt, the structure may show the parent alone.

Tests used:
[1] = biological target: T1, PKBα (Homo sapiens, UniProt P31749); assay: PKB kinase assay (P33-labeled ATP, peptide substrate, filter plate); format: biochemical; conditions: with respect to PKBα
T1 construct: fused on or other part: His6 tag is likely on the Upstate products
Excerpt: The kinase assay for evaluating PKB activity comprises active PKB enzymes, a PKB specific substrate, and P^33-labeled ATP. Two form of PKBα enzymes were used, the full length PKBα and a kinase domain of PKBα with pleckstrin domain (amino acids 1-117) deleted. Both PKB enzymes were obtained from Upstate cell signaling solutions (Cat.# 14-276 and 14-341). The PKB substrate used is a synthetic peptide (ARKRERTYSFGHHA (SEQ ID NO: 1)) as described in Obata et al., J. Biol. Chem. 275 (46), 36108-36115 (2000). The phosphorylated substrate was captured by a phosphocellulose membrane filter plate (MILLIPORE) and measured by a Wallac Microbeta liquid scintillation counter (Perkin Elmer). Table 1 provides the IC50 values obtained for each of the examples with respect to PKBα.

[2] = In vivo pharmacokinetics, IV and oral gavage; parameters: species or system male Sprague-Dawley rats; conditions: male, Sprague-Dawley, plasma, rat, IV 0.5 mg/kg
Experimental: In vivo pharmacokinetic parameters were determined by measuring systemic plasma exposure in male Sprague-Dawley rats (Charles River Laboratories or Taconic, Oxnard, Calif.) by intravenous administration (N=3 fed rats: 2 mg/kg tail vein injection in DMSO) and oral gavage (N=3 fasted rats: 5 mg/kg in 1% Tween 80-2% HPMC-97% deionized water-pH 2.0 vehicle) (Comparative Example 18′ was only dosed IV and at 0.5 mg/kg). DMSO was obtained from Mallinckrodt Inc.; Tween 80 was obtained from Croda; HPMC is Methocel E50 Premium LV, obtained from Dow Excipients. Following oral administration, blood was drawn (250 μL) at 0.25, 0.5, 1, 2, 4, 6, 8, 12, and 16 hours. Following iv administration, blood was drawn (250 μL) at 0.083, 0.25, 0.5, 1, 2, 4, 6, 8, and 16 hours. Blood samples were drawn using a Culex® In Vivo Sampling System (BASi) and collected in BD Microtainer® tubes containing Lithium Heparin (BD). Plasma was obtained by centrifugation of blood at 14000 g and 2-8° C. for five minutes using an Eppendorf 5417R Centrifuge System. Plasma samples were mixed with 2× volume of acetonitrile (Sigma-Aldrich, St. Louis, Mo.). The mixture was stirred briefly using a vortex mixer and then centrifuged at 2867 g for 5 minutes in a Beckman Coulter Allegra 25R equipped with a Type S5700 rotor. The supernatant was removed and diluted 2× with mobile phase A (5/94.9/0.1 v/v/v MeOH/water/AcOH). Plasma concentrations were determined using liquid chromatography/tandem mass spectrometry, with electrospray ionization (ESI) and multiple reaction monitoring in the positive ion mode (Sciex API 3000 mass spectrometer connected to a Shimadzu LC-20AD pump and a LEAP PAL autosampler. Typical conditions used for HPLC were: mobile phase A=5/94.9/0.1 v/v/v MeOH/water/AcOH and mobile phase B=95/4.9/0.1 v/v/v MeOH/water/AcOH; HPLC column was a Varian MonoChrom C18.3μ for 2×30 mm and 51.1 for 2×50 mm) Instrument response was calibrated by a standard curve over 0.1-2000 ng/mL concentration range, and the lower limit of quantitation was 0.1-2.5 ng/mL. Peak areas were integrated on a Windows 2000 computer using the Sciex program Analyst® (Version 1.4.1). Following peak area integration, the data were exported to the software package (Watson® Non-GLP PROD (Version 7.0.0.01, Thermo Electron Corp., Waltham, Mass.)), where concentrations were determined by a weighted linear regression of peak area versus the nominal concentrations of the calibration standards. Calculations were performed on unrounded numbers. The Watson® Non-GLP PROD software was used to determine precision and accuracy for the calibration standards. Noncompartmental analysis of plasma concentration data was used to generate PK parameters such as clearance (CL, L/h/kg), volume of distribution (Vss, L/kg), area under the curve (AUC, ng·h/mL) and secondary parameters such as half-life (t1/2, h) and oral bioavailability (% F, %). This was done using WinNonlin Enterprise software (Version 5.1.1, from Pharsight Corp., Mountain View, Calif.). References for pharmacokinetic analysis include: Gabrielsson and Weiner (1997) Pharmacokinetic and Pharmacodynamic Data Analysis Concepts and Applications, 2nd ed., Swedish Pharmaceutical Press, Stockholm; Gibaldi and Perrier (1982) Pharmacokinetics, 2nd ed., Marcel Dekker, New York. Rowland and Tozer (1995) Clinical Pharmacokinetics: Concepts and Applications, 3rd ed., Lippincott Williams & Wilkins, Philadelphia.

T1 sequence (P31749 118-472 limits assumed): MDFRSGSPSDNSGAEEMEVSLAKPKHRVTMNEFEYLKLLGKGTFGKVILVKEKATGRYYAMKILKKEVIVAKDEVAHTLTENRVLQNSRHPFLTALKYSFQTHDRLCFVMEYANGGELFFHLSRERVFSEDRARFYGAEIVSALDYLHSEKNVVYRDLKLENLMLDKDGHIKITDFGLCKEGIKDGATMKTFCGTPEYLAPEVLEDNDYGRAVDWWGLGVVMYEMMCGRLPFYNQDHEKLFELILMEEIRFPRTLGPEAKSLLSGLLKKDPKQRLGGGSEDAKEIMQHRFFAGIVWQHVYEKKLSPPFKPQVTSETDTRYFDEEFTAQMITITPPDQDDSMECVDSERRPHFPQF

Row | SMILES | IC50 [1] | other results
1 | N[C@@H](CNc1ncc(-c2ccc3cnc(F)cc3c2)s1)Cc1ccc(C(F)(F)F)nc1 [Example 47, (2R)—N^1-(5-(3-Fluoro-6-isoquinolinyl)-1,3-thiazol-2-yl)-3-(6-(trifluoromethyl)-3-pyridinyl)-1,2-propanediamine] | 1000 to 10000 nM | 
2 | COCc1nc(NC[C@@H](N)[C@@H](C)c2ccc(C(F)(F)F)nc2)sc1-c1ccc2cnc(F)cc2c1 [Example 13, N-((2S,3S)-2-Amino-3-(6-(trifluoromethyl)pyridin-3-yl)butyl)-5-(3-fluoroisoquinolin-6-yl)-4-(methoxymethyl)thiazol-2-amine] | < 50 nM | 
3 | N[C@H](CNc1ncc(-c2ccc3cnc(F)cc3c2)s1)[C@@H](O)c1ccc(C(F)(F)F)cc1 [Example 37, (1S,2R)-2-Amino-3-((5-(3-fluoro-6-isoquinolinyl)-1,3-thiazol-2-yl)amino)-1-(4-(trifluoromethyl)phenyl)-1-propanol trifluoroacetate] | < 50 nM | 
4 | COC(=O)c1nc(NC[C@@H](N)Cc2ccc(C(F)(F)F)cc2)sc1-c1ccc2cnc(F)cc2c1 [Example 20, Methyl 2-((S)-2-amino-3-(4-(trifluoromethyl)phenyl)propylamino)-5-(3-fluoroisoquinolin-6-yl)thiazole-4-carboxylate] | < 50 nM | 
5 | COC[C@@H](c1ccc(C(F)(F)F)cc1)[C@H](N)CNc1ncc(-c2ccc3cnc(F)cc3c2)s1 [Example 32, N-((2S,3S)-2-Amino-4-methoxy-3-(4-(trifluoromethyl)phenyl)butyl)-5-(3-fluoroisoquinolin-6-yl)thiazol-2-amine] | < 50 nM | 
6 | CC(F)(F)c1ccc(C[C@H](N)CNc2ncc(-c3ccc4cnc(F)cc4c3)s2)cc1 [Example 3, N—((S)-2-Amino-3-(4-(1,1-difluoroethyl)phenyl)propyl)-5-(3-fluoroisoquinolin-6-yl)thiazol-2-amine] | < 50 nM | 
7 | N[C@H](CCc1ncc(-c2ccc3cnc(F)cc3c2)s1)Cc1ccc(C(F)(F)F)cc1 [Example 48, (2R)-4-(5-(3-Fluoroisoquinolin-6-yl)thiazol-2-yl)-1-(4-(trifluoromethyl)phenyl)butan-2-amine] | 1000 to 10000 nM | 
8 | N[C@H](CNc1ncc(-c2ccc3cnc(F)cc3c2)s1)Cc1ccc2c(c1)OCCO2 [Example 43, N—((S)-2-Amino-3-(2,3-dihydrobenzo[b][1,4]dioxin-6-yl)propyl)-5-(3-fluoroisoquinolin-6-yl)thiazol-2-amine] | < 50 nM | 
9 | Cn1ccc(C[C@H](N)CNc2ncc(-c3ccc4cnc(F)cc4c3)s2)cc1=O [Example 46] | 50 to 1000 nM | 
10 | CC(C)(C)OC(=O)N[C@@H](Cc1ccc(C(F)F)cc1)CN(C(=O)OC(C)(C)C)c1ncc(-c2ccc3cnc(F)cc3c2)s1 [Example 41, tert-Butyl ((2S)-2-((tert-butoxycarbonyl)amino)-3-(4-(difluoromethyl)phenyl)propyl)(5-(3-fluoro-6-isoquinolinyl)-1,3-thiazol-2-yl)carbamate] | 1000 to 10000 nM | 
11 | COCc1nc(NC[C@@H](N)Cc2ccc(C(F)(F)F)cc2)sc1-c1ccc2cnc(F)cc2c1 [Example 24, N—((S)-2-Amino-3-(4-(trifluoromethyl)phenyl)propyl)-5-(3-fluoroisoquinolin-6-yl)-4-(methoxymethyl)thiazol-2-amine] | < 50 nM | 
12 | N[C@H](CNc1ncc(-c2ccc3cnc(F)cc3c2)s1)Cc1cnc(C(F)(F)F)nc1 [Example 26, N—((S)-2-Amino-3-(2-(trifluoromethyl)pyrimidin-5-yl)propyl)-5-(3-fluoroisoquinolin-6-yl)thiazol-2-amine] | < 50 nM | 
13 | COCO[C@@H](c1ccc(C(F)(F)F)cc1)[C@H](N)CNc1ncc(-c2ccc3cnc(F)cc3c2)s1 [Example 39] | < 50 nM | 
14 | COCc1nc(NC[C@@H](N)Cc2ccc(C(F)(F)F)nc2)sc1-c1ccc2cnccc2c1 [Comparative Example 18′, (S)—N-1-(5-(Isoquinolin-6-yl)-4-(methoxymethyl)thiazol-2-yl)-3-(6-(trifluoromethyl)pyridin-3-yl)propane-1,2-diamine, reference compound] |  | clearance [2]: 237 mL/min/kg; AUC(0-t) ([2]; read-out: IV AUClast): 33 ng·h/mL; Cmax ([2]; read-out: IV Cmax): 73 ng/mL; Vd ([2]; read-out: Vss): 6.44 L/kg
15 | COC(=O)c1nc(NC[C@@H](N)Cc2ccc(C(F)(F)F)nc2)sc1-c1ccc2cnc(F)cc2c1 [Example 15, Methyl 2-((S)-2-amino-3-(6-(trifluoromethyl)pyridin-3-yl)propylamino)-5-(3-fluoroisoquinolin-6-yl)thiazole-4-carboxylate] | < 50 nM | 
16 | COC(=O)c1nc(NC[C@@H](N)Cc2ccc(C(C)(F)F)nc2)sc1-c1ccc2cnc(F)cc2c1 [Example 8, Methyl 2-((S)-2-amino-3-(6-(1,1-difluoroethyl)pyridin-3-yl)propylamino)-5-(3-fluoroisoquinolin-6-yl)thiazole-4-carboxylate] | < 50 nM | 
17 | CC(F)(F)c1ccc(C[C@H](N)CNc2nc(CO)c(-c3ccc4cnc(F)cc4c3)s2)cn1 [Example 9, (2-((S)-2-Amino-3-(6-(1,1-difluoroethyl)pyridin-3-yl)propylamino)-5-(3-fluoroisoquinolin-6-yl)thiazol-4-yl)methanol] | < 50 nM | 
18 | COCc1nc(NC[C@@H](N)Cc2ccc(C(C)(F)F)nc2)sc1-c1ccc2cnc(F)cc2c1 [Example 6, N—((S)-2-Amino-3-(6-(1,1-difluoroethyl)pyridin-3-yl)propyl)-5-(3-fluoroisoquinolin-6-yl-4-(methoxymethyl)thiazol-2-amine trifluoroacetate] | < 50 nM | 
19 | N[C@H](CNc1ncc(-c2ccc3cnc(F)cc3c2)s1)Cc1ccc(Cl)cc1 [Example 5, N—((S)-2-Amino-3-(4-chlorophenyl)propyl)-5-(3-fluoroisoquinolin-6-yl)thiazol-2-amine] | < 50 nM | 
20 | N[C@H](CNc1ncc(-c2ccc3cnc(F)cc3c2)s1)Cc1ccc(Cl)c(Cl)c1 [Example 14, N—((S)-2-amino-3-(3,4-dichlorophenyl)propyl)-5-(3-fluoroisoquinolin-6-yl)thiazol-2-amine] | < 50 nM | 
21 | CNC(=O)c1nc(NC[C@@H](N)Cc2ccc(C(F)(F)F)cc2)sc1-c1ccc2cnc(F)cc2c1 [Example 22, 2-((S)-2-Amino-3-(4-(trifluoromethyl)phenyl)propylamino)-5-(3-fluoroisoquinolin-6-yl)-N-methylthiazole-4-carboxamide trifluoroacetate] | 50 to 1000 nM | 
22 | COCc1nc(NC[C@H](N)Cc2ccc(C(F)(F)F)nc2)sc1-c1ccc2cnc(F)cc2c1 [Example 19, N—((R)-2-Amino-3-(6-(trifluoromethyl)pyridin-3-yl)propyl)-5-(3-fluoroisoquinolin-6-yl)-4-(methoxymethyl)thiazol-2-amine] | 1000 to 10000 nM | 
23 | N[C@H](CNc1nc(C(=O)NC2CC2)c(-c2ccc3cnc(F)cc3c2)s1)Cc1ccc(C(F)(F)F)cc1 [Example 23, 2-((S)-2-Amino-3-(4-(trifluoromethyl)phenyl)propylamino)-N-cyclopropyl-5-(3-fluoroisoquinolin-6-yl)thiazole-4-carboxamide] | 1000 to 10000 nM | 
